The source of these data is US10682332B2, “Method for treating melanoma” (Huanggang normal University, priority 2017, dated 2020).

The subject of experiment [1] is human melanoma cancer cell A375. Description: Growth inhibition of human melanoma cancer cell A375. It counts as cell-based. The settings on record: 3.125-50 μmol solutions, 48 hrs culturing, absorbance. The protocol: (§1) The study was conducted using human melanoma cancer cell line A2058 or A375 as follows: culturing the cell line in DMEM medium; adding 5-hydroxy-3,6,7,8,3′,4′-hexamethoxyflavone with varying concentrations (3.125, 6.25, 12.5, 25, 50 μmol in 100 μl of 2% DMSO solution per liter of the medium); collecting the control and treated cells after 48 hrs of culturing and determining the cell viability by measuring light absorbance of the cells; and calculating the IC50 rate in the human melanoma cancer cells.
(§2) The cells derived from human melanoma lines A2058 and A375 were cultured in DMEM medium containing 100 U/mL penicillin, 100 μg/ml streptomycin, and 10% fetal bovine serum at a temperature of 37° C. and with carbon dioxide at a concentration of 5%. The cultured cells were divided into 6 study groups and each would be treated with 5-hydroxy-3,6,7,8,3′,4′-hexamethoxyflavone of a different concentration. […] After culturing for 48 hrs, the cells were collected and the absorbance of each treatment group was measured for calculating the IC50 rate in human melanoma cancer cell A2058 by the treatment. […]

The subject of experiment [2] is human melanoma cancer cell A375-engrafted C57BL/6 mice. Description: Tumor growth in human melanoma cancer cell A375-engrafted C57BL/6 mice. It counts as in vivo, mouse. The settings on record: fed 0.4 mL of 0.5 μmol solution once every 2 days, 28 days after inoculation; control 2450 mm^3. Here is the method:
The study was carried out as follows: inoculating C57BL/6 mice with of the human melanoma cancer cells; dividing the mice into 2 groups with 8 mice in each group and treating them once every two days with (i) 0.4 ml of 2% DMSO, (ii) 0.4 ml of 2% DMSO containing 0.5 μmol of 5-hydroxy-3,6,7,8,3′,4′-hexamethoxyflavone; measuring tumor sizes after animal sacrificing 28 days post tumor cell inoculation.
The experimental C57BL/6 mice were divided into 2 groups, with 8 in each group. Each mouse was fed with 0.4 mL of 0.5 μmol 5-hydroxy-3,6,7,8,3′,4′-hexamethoxyflavone solution as in the treatment group or with 0.4 mL 2% DMSO solution as in the control group at a frequency of once every 2 days. Each mouse was inoculated with human melanoma cancer cell A375 following a standard protocol. 28 days after of the inoculation, the mice were sacrificed. Finally, sizes of tumors in each group of mice were measured and their averages were calculated.

For experiment [3], the system named is human melanoma cancer cell A2058. In words: Growth inhibition of human melanoma cancer cell A2058. It is filed as cell-based. To be noted: 3.125-50 μmol solutions, 48 hrs culturing, absorbance. The protocol:
as §1, §2

Experiment [4] deals with human melanoma cancer cell A375. In words: Cell cycle arrest by PI staining and flow cytometry. It is filed as cell-based. The settings on record: 24 hrs, control 1.4%. Here is the method:
To further elucidate the mechanism of growth inhibition of the human melanoma cancer cells by 5-hydroxy-3,6,7,8,3′,4′-hexamethoxyflavone, another study was carried out using only human melanoma cancer cell A375 and 3 study groups. In one liter of the culturing media, 100 μL of 25 and 50 μmol of 5-hydroxy-3,6,7,8,3′,4′-hexamethoxyflavone prepared solutions were added to two study groups. The control group was only treated with 2% DMSO solution.
The studied cells were incubated for 24 hrs before collected in a centrifuge tube. The cells were then washed with PBS at 4° C. and n mixed with 70% ethanol pre-cooled at −20° C. before kept at 4° C. overnight. Next, the cells were centrifuged at 1000 rpm to remove ethanol and the cell density was adjusted to (1-2)×10^6 cells/mL by add PBS. Following adding PI and DNase-free RNase to respectively reach final concentrations of 50 μg/mL and 50 µg/mL, the cells were stained for cell cycle and apoptosis studies by flow cytometry. All studies were repeated 3 times and the averages were calculated.
For orientation: Flow cytometry measures light scatter and fluorescence of single cells or particles in a stream.

For the molecule `COc1ccc(-c2oc3c(OC)c(OC)c(OC)c(O)c3c(=O)c2OC)cc1OC` [2-(3,4-dimethoxy-phenyl)-5-hydroxy-3,6,7,8-tetramethoxy-chromen-4-one], the “growth of human melanoma cancer cell A375” value in experiment [1] is on record as “inhibited the growth”. The same molecule showed an average tumor size in experiment [2] of 890 mm^3. For the same molecule, the “growth of human melanoma cancer cell A2058” value in experiment [3] is listed as “inhibited the growth”. Further, the “G1 phase cells of the total cells” value is given as 9.4% in experiment [4] (25 μmol drug solution) and 25% in experiment [4] (50 μmol drug solution).
